Legend:
velvetleaf [1] = assay: Test Example 5: herbicidal effect by foliage application, plastic box (Table 20, symbol M); type: in vivo, velvetleaf (Abutilon theophrasti); conditions: foliage application, three weeks after application
How it was run: (§1)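 Sow seeds spot-wise in sterilized diluvial soil; cover with ~1.5 cm soil. Grow 14 days in greenhouse, 25° C. to 30° C. Spray foliage with emulsion diluted to predetermined amount. Rate effect after 3 weeks.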

blackgrass [2] = assay: Test Example 5: herbicidal effect by foliage application, plastic box (Table 20, symbol J); type: in vivo, blackgrass (Alopecurus myosuroides); conditions: foliage application, three weeks after application
How it was run: as §1

southern crabgrass = assay: Test Example 4: herbicidal effect by soil treatment (Table 19, symbol F); type: in vivo, southern crabgrass (Digitaria ciliaris)
How it was run: (§2)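 Applied as a water-diluted emulsion, the compound was sprayed onto soil covering newly sown seeds. Evaluation came three weeks after application, in a greenhouse held at 25° C. to 30° C.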

blackgrass [3] = assay: Test Example 4: herbicidal effect by soil treatment (Table 19, symbol J); type: in vivo, blackgrass (Alopecurus myosuroides)
How it was run: as §2

barnyard grass [4] = assay: Test Example 3: herbicidal effect by foliage application, Wagner pot (Table 18, symbol H); type: in vivo, barnyard grass (Echinochloa crus-galli)
How it was run: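 Plants were sown in alluvial soil held under 0.1–0.5 cm standing water and grown 14 days in a greenhouse at 25–30 °C. An emulsifiable formulation, water-diluted to the set dose, was then sprayed onto the foliage, and effects were scored three weeks later using previously defined criteria.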

chickweed = assay: Test Example 5: herbicidal effect by foliage application, plastic box (Table 20, symbol P); type: in vivo, common chickweed (Stellaria media); conditions: foliage application, three weeks after application
How it was run: as §1

false cleavers = assay: Test Example 4: herbicidal effect by soil treatment (Table 19, symbol Q); type: in vivo, false cleavers (Galium spurium)
How it was run: as §2

barnyard grass [5] = assay: Test Example 5: herbicidal effect by foliage application, plastic box (Table 20, symbol H); type: in vivo, barnyard grass (Echinochloa crus-galli); conditions: foliage application, three weeks after application
How it was run: as §1

velvetleaf [6] = assay: Test Example 4: herbicidal effect by soil treatment (Table 19, symbol M); type: in vivo, velvetleaf (Abutilon theophrasti)
How it was run: as §2

Italian ryegrass = assay: Test Example 5: herbicidal effect by foliage application, plastic box (Table 20, symbol K); type: in vivo, Italian ryegrass (Lolium multiflorum); conditions: foliage application, three weeks after application
How it was run: as §1

persian speedwell = assay: Test Example 4: herbicidal effect by soil treatment (Table 19, symbol R); type: in vivo, Persian speedwell (Veronica persica)
How it was run: as §2

lambsquarters = assay: Test Example 4: herbicidal effect by soil treatment (Table 19, symbol O); type: in vivo, lambsquarters (Chenopodium album)
How it was run: as §2

late watergrass [7] = assay: Test Example 1: herbicidal activity, application before weed generation under submerged conditions (Table 16, symbol A); type: in vivo, late watergrass (Echinochloa oryzicola)
How it was run: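 Alluvial soil was flooded to 4 cm depth, weed seeds were sown mixed and 2.5-leaf rice seedlings were transplanted. On sowing day, the compound's emulsion, diluted in water to a set dose, was applied to the water surface. Plants grew at 25–30 °C and were scored 0–5 after three weeks.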

green foxtail = assay: Test Example 5: herbicidal effect by foliage application, plastic box (Table 20, symbol G); type: in vivo, green foxtail (Setaria viridis); conditions: foliage application, three weeks after application
How it was run: as §1

late watergrass [8] = assay: Test Example 2: herbicidal activity, application during weed generation under submerged conditions (Table 17, symbol A); type: in vivo, late watergrass (Echinochloa oryzicola); conditions: application during weed generation, submerged conditions
How it was run: (§3)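 Herbicide emulsion, diluted with water to the chosen amount, is applied onto 4 cm floodwater over alluvial soil where the weeds were co-sown and raised at 25–30° C. Application timing: 1–2 leaves. Assessment: three weeks afterwards.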

oval-leafed pondweed = assay: Test Example 2: herbicidal activity, application during weed generation under submerged conditions (Table 17, symbol C); type: in vivo, oval-leafed pondweed (Monochoria vaginalis); conditions: application during weed generation, submerged conditions
How it was run: as §3

barnyard grass [9] = assay: Test Example 4: herbicidal effect by soil treatment (Table 19, symbol H); type: in vivo, barnyard grass (Echinochloa crus-galli)
How it was run: as §2

[10] = amount of applied herbicide 224 g/ha
[11] = amount of applied herbicide 304 g/ha
[12] = amount of applied herbicide 320 g/ha

CCCC(=O)Oc1c(C)nn(C)c(=O)c1-c1c(-c2ccccc2OC)sc2cc(C)ccc12 [3-050]
M: velvetleaf, herbicidal effect grade (velvetleaf [1]; 224 g/ha): 4 (Herbicidal rate of 70% or more and less than 90%)
J: blackgrass, herbicidal effect grade (blackgrass [2]; 224 g/ha): 4 (Herbicidal rate of 70% or more and less than 90%)
F: southern crabgrass, herbicidal effect grade (southern crabgrass; [10]): 0 (Herbicidal rate of 5% or less (almost no effect))
J: blackgrass, herbicidal effect grade (blackgrass [3]; [10]): 0 (Herbicidal rate of 5% or less (almost no effect))
herbicidal effect on barnyard grass (H) (barnyard grass [4]; 224 g/ha): 4 (Herbicidal rate of 70% or more and less than 90%)
P: chickweed, herbicidal effect grade (chickweed; 224 g/ha): 5 (Herbicidal rate of 90% or more (almost completely withered))
Q: false cleavers, herbicidal effect grade (false cleavers; [10]): 0 (Herbicidal rate of 5% or less (almost no effect))
H: barnyard grass, herbicidal effect grade (barnyard grass [5]; 224 g/ha): 4 (Herbicidal rate of 70% or more and less than 90%)
M: velvetleaf, herbicidal effect grade (velvetleaf [6]; [10]): 0 (Herbicidal rate of 5% or less (almost no effect))
K: Italian ryegrass, herbicidal effect grade (Italian ryegrass; 224 g/ha): 4 (Herbicidal rate of 70% or more and less than 90%)
R: persian speedwell, herbicidal effect grade (persian speedwell; [10]): 1 (Herbicidal rate of 5% or more and less than 20%)
O: lambsquarters, herbicidal effect grade (lambsquarters; [10]): 0 (Herbicidal rate of 5% or less (almost no effect))
Herbicidal effect, A: late watergrass (late watergrass [7]; [10]): 2 (Herbicidal rate of 20% or more and less than 40%)
G: green foxtail, herbicidal effect grade (green foxtail; 224 g/ha): 3 (Herbicidal rate of 40% or more and less than 70%)
herbicidal effect rating, A: late watergrass (late watergrass [8]; AAH 224 g/ha): 0 (Herbicidal rate of 5% or less (almost no effect))
herbicidal effect rating, C: oval-leafed pondweed (oval-leafed pondweed; AAH 224 g/ha): 3 (Herbicidal rate of 40% or more and less than 70%)
H: barnyard grass, herbicidal effect grade (barnyard grass [9]; [10]): 0 (Herbicidal rate of 5% or less (almost no effect))

CCCC(=O)Oc1c(C)nn(C)c(=O)c1-c1c(-c2ccccc2OCC)sc2cc(C)ccc12 [3-054]
M: velvetleaf, herbicidal effect grade (velvetleaf [1]; 304 g/ha): 4 (Herbicidal rate of 70% or more and less than 90%)
J: blackgrass, herbicidal effect grade (blackgrass [2]; 304 g/ha): 4 (Herbicidal rate of 70% or more and less than 90%)
F: southern crabgrass, herbicidal effect grade (southern crabgrass; [11]): 4 (Herbicidal rate of 70% or more and less than 90%)
J: blackgrass, herbicidal effect grade (blackgrass [3]; [11]): 3 (Herbicidal rate of 40% or more and less than 70%)
herbicidal effect on barnyard grass (H) (barnyard grass [4]; 304 g/ha): 5 (Herbicidal rate of 90% or more (almost completely withered))
P: chickweed, herbicidal effect grade (chickweed; 304 g/ha): 5 (Herbicidal rate of 90% or more (almost completely withered))
Q: false cleavers, herbicidal effect grade (false cleavers; [11]): 2 (Herbicidal rate of 20% or more and less than 40%)
H: barnyard grass, herbicidal effect grade (barnyard grass [5]; 304 g/ha): 4 (Herbicidal rate of 70% or more and less than 90%)
M: velvetleaf, herbicidal effect grade (velvetleaf [6]; [11]): 0 (Herbicidal rate of 5% or less (almost no effect))
K: Italian ryegrass, herbicidal effect grade (Italian ryegrass; 304 g/ha): 5 (Herbicidal rate of 90% or more (almost completely withered))
R: persian speedwell, herbicidal effect grade (persian speedwell; [11]): 3 (Herbicidal rate of 40% or more and less than 70%)
O: lambsquarters, herbicidal effect grade (lambsquarters; [11]): 0 (Herbicidal rate of 5% or less (almost no effect))
Herbicidal effect, A: late watergrass (late watergrass [7]; [11]): 5 (Herbicidal rate of 90% or more (almost completely withered))
G: green foxtail, herbicidal effect grade (green foxtail; 304 g/ha): 5 (Herbicidal rate of 90% or more (almost completely withered))
herbicidal effect rating, A: late watergrass (late watergrass [8]; AAH 304 g/ha): 2 (Herbicidal rate of 20% or more and less than 40%)
herbicidal effect rating, C: oval-leafed pondweed (oval-leafed pondweed; AAH 304 g/ha): 3 (Herbicidal rate of 40% or more and less than 70%)
H: barnyard grass, herbicidal effect grade (barnyard grass [9]; [11]): 0 (Herbicidal rate of 5% or less (almost no effect))

COc1cc(F)ccc1-c1sc2cc(C)ccc2c1-c1c(O)c(C)nn(C)c1=O [3-055]
M: velvetleaf, herbicidal effect grade (velvetleaf [1]; 320 g/ha): 5 (Herbicidal rate of 90% or more (almost completely withered))
J: blackgrass, herbicidal effect grade (blackgrass [2]; 320 g/ha): 5 (Herbicidal rate of 90% or more (almost completely withered))
F: southern crabgrass, herbicidal effect grade (southern crabgrass; [12]): 3 (Herbicidal rate of 40% or more and less than 70%)
J: blackgrass, herbicidal effect grade (blackgrass [3]; [12]): 2 (Herbicidal rate of 20% or more and less than 40%)
herbicidal effect on barnyard grass (H) (barnyard grass [4]; 320 g/ha): 5 (Herbicidal rate of 90% or more (almost completely withered))
P: chickweed, herbicidal effect grade (chickweed; 320 g/ha): 5 (Herbicidal rate of 90% or more (almost completely withered))
Q: false cleavers, herbicidal effect grade (false cleavers; [12]): 3 (Herbicidal rate of 40% or more and less than 70%)
H: barnyard grass, herbicidal effect grade (barnyard grass [5]; 320 g/ha): 4 (Herbicidal rate of 70% or more and less than 90%)
M: velvetleaf, herbicidal effect grade (velvetleaf [6]; [12]): 0 (Herbicidal rate of 5% or less (almost no effect))
K: Italian ryegrass, herbicidal effect grade (Italian ryegrass; 320 g/ha): 5 (Herbicidal rate of 90% or more (almost completely withered))
R: persian speedwell, herbicidal effect grade (persian speedwell; [12]): 4 (Herbicidal rate of 70% or more and less than 90%)
O: lambsquarters, herbicidal effect grade (lambsquarters; [12]): 0 (Herbicidal rate of 5% or less (almost no effect))
Herbicidal effect, A: late watergrass (late watergrass [7]; [12]): 4 (Herbicidal rate of 70% or more and less than 90%)
G: green foxtail, herbicidal effect grade (green foxtail; 320 g/ha): 5 (Herbicidal rate of 90% or more (almost completely withered))
herbicidal effect rating, A: late watergrass (late watergrass [8]; AAH 320 g/ha): 1 (Herbicidal rate of 5% or more and less than 20%)
herbicidal effect rating, C: oval-leafed pondweed (oval-leafed pondweed; AAH 320 g/ha): 3 (Herbicidal rate of 40% or more and less than 70%)
H: barnyard grass, herbicidal effect grade (barnyard grass [9]; [12]): 0 (Herbicidal rate of 5% or less (almost no effect))

CCCC(=O)Oc1c(C)nn(C)c(=O)c1-c1c(-c2ccccc2OCC)sc2cc(OC)ccc12 [3-071]
M: velvetleaf, herbicidal effect grade (velvetleaf [1]; 320 g/ha): 5 (Herbicidal rate of 90% or more (almost completely withered))
J: blackgrass, herbicidal effect grade (blackgrass [2]; 320 g/ha): 5 (Herbicidal rate of 90% or more (almost completely withered))
F: southern crabgrass, herbicidal effect grade (southern crabgrass; [12]): 4 (Herbicidal rate of 70% or more and less than 90%)
J: blackgrass, herbicidal effect grade (blackgrass [3]; [12]): 4 (Herbicidal rate of 70% or more and less than 90%)
herbicidal effect on barnyard grass (H) (barnyard grass [4]; 320 g/ha): 5 (Herbicidal rate of 90% or more (almost completely withered))
P: chickweed, herbicidal effect grade (chickweed; 320 g/ha): 5 (Herbicidal rate of 90% or more (almost completely withered))
Q: false cleavers, herbicidal effect grade (false cleavers; [12]): 5 (Herbicidal rate of 90% or more (almost completely withered))
H: barnyard grass, herbicidal effect grade (barnyard grass [5]; 320 g/ha): 5 (Herbicidal rate of 90% or more (almost completely withered))
M: velvetleaf, herbicidal effect grade (velvetleaf [6]; [12]): 1 (Herbicidal rate of 5% or more and less than 20%)
K: Italian ryegrass, herbicidal effect grade (Italian ryegrass; 320 g/ha): 4 (Herbicidal rate of 70% or more and less than 90%)
R: persian speedwell, herbicidal effect grade (persian speedwell; [12]): 5 (Herbicidal rate of 90% or more (almost completely withered))
O: lambsquarters, herbicidal effect grade (lambsquarters; [12]): 3 (Herbicidal rate of 40% or more and less than 70%)
Herbicidal effect, A: late watergrass (late watergrass [7]; [12]): 5 (Herbicidal rate of 90% or more (almost completely withered))
G: green foxtail, herbicidal effect grade (green foxtail; 320 g/ha): 5 (Herbicidal rate of 90% or more (almost completely withered))
herbicidal effect rating, A: late watergrass (late watergrass [8]; AAH 320 g/ha): 5 (Herbicidal rate of 90% or more (almost completely withered))
herbicidal effect rating, C: oval-leafed pondweed (oval-leafed pondweed; AAH 320 g/ha): 5 (Herbicidal rate of 90% or more (almost completely withered))
H: barnyard grass, herbicidal effect grade (barnyard grass [9]; [12]): 3 (Herbicidal rate of 40% or more and less than 70%)
